Biological target: GCN2 (Homo sapiens, UniProt Q9P2K8)
Assay: TR-FRET biochemical assay for inhibition of GCN2 (Example 106, for Example 1-4BB)
Conditions: Table 8

GCN2, sequence (Q9P2K8 whole entry): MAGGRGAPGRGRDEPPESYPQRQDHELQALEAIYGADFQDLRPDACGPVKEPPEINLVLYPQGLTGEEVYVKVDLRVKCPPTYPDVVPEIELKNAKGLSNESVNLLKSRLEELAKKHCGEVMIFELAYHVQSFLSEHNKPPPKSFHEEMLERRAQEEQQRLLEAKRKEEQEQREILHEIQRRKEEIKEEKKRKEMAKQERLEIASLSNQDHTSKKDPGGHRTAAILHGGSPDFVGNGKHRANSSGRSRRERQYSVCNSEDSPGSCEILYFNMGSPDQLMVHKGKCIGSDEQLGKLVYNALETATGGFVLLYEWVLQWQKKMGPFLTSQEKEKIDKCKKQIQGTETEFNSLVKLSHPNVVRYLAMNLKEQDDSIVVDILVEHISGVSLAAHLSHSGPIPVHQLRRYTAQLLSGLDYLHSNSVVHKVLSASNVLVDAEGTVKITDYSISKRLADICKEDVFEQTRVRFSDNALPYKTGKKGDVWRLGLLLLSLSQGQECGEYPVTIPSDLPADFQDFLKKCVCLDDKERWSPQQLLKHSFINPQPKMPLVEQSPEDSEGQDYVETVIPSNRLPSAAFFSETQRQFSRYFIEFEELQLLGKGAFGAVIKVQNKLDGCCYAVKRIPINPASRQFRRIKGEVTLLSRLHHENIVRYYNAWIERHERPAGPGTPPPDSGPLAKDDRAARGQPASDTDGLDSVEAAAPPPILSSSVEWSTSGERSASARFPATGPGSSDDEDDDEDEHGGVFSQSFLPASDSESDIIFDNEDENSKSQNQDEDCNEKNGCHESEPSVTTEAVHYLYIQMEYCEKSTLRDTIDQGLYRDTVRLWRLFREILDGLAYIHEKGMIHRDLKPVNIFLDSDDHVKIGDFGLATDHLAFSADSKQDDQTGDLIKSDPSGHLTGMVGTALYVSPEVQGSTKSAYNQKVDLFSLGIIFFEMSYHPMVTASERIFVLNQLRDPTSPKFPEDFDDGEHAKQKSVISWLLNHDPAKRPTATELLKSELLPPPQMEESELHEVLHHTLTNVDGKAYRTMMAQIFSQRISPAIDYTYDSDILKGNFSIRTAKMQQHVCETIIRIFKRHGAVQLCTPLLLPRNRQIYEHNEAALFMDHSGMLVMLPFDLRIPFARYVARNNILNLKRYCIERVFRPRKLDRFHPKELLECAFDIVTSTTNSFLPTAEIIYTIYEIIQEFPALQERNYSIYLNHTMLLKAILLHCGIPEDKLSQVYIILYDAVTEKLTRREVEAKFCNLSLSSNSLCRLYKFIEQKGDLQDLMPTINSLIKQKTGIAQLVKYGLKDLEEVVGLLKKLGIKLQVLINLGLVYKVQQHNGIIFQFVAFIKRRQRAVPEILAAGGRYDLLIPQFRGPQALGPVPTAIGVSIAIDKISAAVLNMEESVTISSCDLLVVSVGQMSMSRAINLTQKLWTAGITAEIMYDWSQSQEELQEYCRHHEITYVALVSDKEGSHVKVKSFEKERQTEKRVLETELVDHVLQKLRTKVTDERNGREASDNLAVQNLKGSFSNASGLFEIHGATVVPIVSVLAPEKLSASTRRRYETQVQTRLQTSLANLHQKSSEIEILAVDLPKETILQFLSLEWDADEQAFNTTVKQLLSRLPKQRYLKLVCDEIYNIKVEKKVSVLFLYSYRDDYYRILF

IC50 [nM]	SMILES
2500 to 10000	Cn1cccc(S(=O)(=O)Nc2ccc(F)c(-c3ccc4c(-c5ncc[nH]5)n[nH]c4c3F)c2F)c1=O [Example 2AJ, N-(2,4-difluoro-3-(7-fluoro-3-(1H-imidazol-2-yl)-1H-indazol-6-yl)phenyl)-1-methyl-2-oxo-1,2-dihydro-pyridine-3-sulfonamide]
< 500	COc1cccc(S(=O)(=O)Nc2ccc(F)c(-c3ccc4c(-c5ncc[nH]5)n[nH]c4c3F)c2F)c1F [Example 2AP, N-(2,4-difluoro-3-(7-fluoro-3-(1H-imidazol-2-yl)-1H-indazol-6-yl)phenyl)-2-fluoro-3-methoxybenzene-sulfonamide]
500 to 2500	COc1nn(C)cc1S(=O)(=O)Nc1ccc(F)c(-c2ccc3c(-c4ncc[nH]4)n[nH]c3c2F)c1F [Example 2K, N-(2,4-difluoro-3-(7-fluoro-3-(1H-imidazol-2-yl)-1H-indazol-6-yl)phenyl)-3-methoxy-1-methyl-1H-pyrazole-4-sulfonamide]
< 500	COc1ccc(Cl)c(S(=O)(=O)Nc2ccc(F)c(-c3ccc4c(-c5ncc[nH]5)n[nH]c4c3F)c2F)c1 [Example 2BA, 2-chloro-N-(2,4-difluoro-3-(7-fluoro-3-(1H-imidazol-2-yl)-1H-indazol-6-yl)phenyl)-5-methoxybenzene-sulfonamide]
< 500	O=S(=O)(Nc1ccc(F)c(-c2ccc3c(-c4ncc[nH]4)n[nH]c3c2F)c1F)c1cccc(CO)c1 [Example 3, N-(2,4-Difluoro-3-(7-fluoro-3-(1H-imidazol-2-yl)-1H-indazol-6-yl)phenyl)-3-(hydroxymethyl)benzenesulfonamide]
< 500	O=S(=O)(Nc1ccc(F)c(-c2ccc3c(-c4ncc[nH]4)n[nH]c3c2F)c1F)c1ccccc1Cl [Example 2BP, 2-chloro-N-(2,4-difluoro-3-(7-fluoro-3-(1H-imidazol-2-yl)-1H-indazol-6-yl)phenyl)-benzenesulfonamide]

Same assay, conditions: Table 9

IC50 [nM]	SMILES
500 to 2500	Cc1ncc(S(=O)(=O)Nc2cc(F)cc(-c3ccc4c(-c5ncc[nH]5)n[nH]c4c3F)c2F)s1 [Example 3CJ, N-(2,5-difluoro-3-(7-fluoro-3-(1H-imidazol-2-yl)-1H-indazol-6-yl)phenyl)-2-methylthiazole-5-sulfonamide]
< 500	COc1nc(C)c(Cl)cc1S(=O)(=O)Nc1ccc(F)c(-c2ccc3c(C(=O)NCCCN(C)C)n[nH]c3c2F)c1F [Example 3DN, 6-(3-((5-chloro-2-methoxy-6-methylpyridine)-3-sulfon-amido)-2,6-difluorophenyl)-N-(3-(dimethylamino)propyl)-7-fluoro-1H-indazole-3-carboxamide]
> 10000	NC1CCc2c1cc(F)cc2S(=O)(=O)Nc1ccc(F)c(-c2ccc3c(-c4ncc[nH]4)n[nH]c3c2F)c1F (centres unmarked) [Example 4AO]
< 500	COc1ncc(F)cc1S(=O)(=O)Nc1ccc(F)c(-c2ccc3c(C(=O)NCCCN(C)C)n[nH]c3c2F)c1F [Example 3U, 6-(2,6-difluoro-3-((5-fluoro-2-methoxypyridine)-3-sulfonamido)phenyl)-N-(3-(dimethylamino)propyl)-7-fluoro-1H-indazole-3-carboxamide]
< 500	COc1ncc(F)cc1S(=O)(=O)Nc1ccc(F)c(-c2ccc3c(C(=O)NCC[C@@H](O)CO)n[nH]c3c2F)c1F [Example 3BF, 6-(2,6-difluoro-3-((5-fluoro-2-methoxypyridine)-3-sulfonamido)phenyl)-N-((R)-3,4-dihydroxybutyl)-7-fluoro-1H-indazole-3-carboxamide]
< 500	CNC(=O)c1n[nH]c2c(F)c(-c3c(F)ccc(NS(=O)(=O)c4cc(F)cnc4OC)c3F)ccc12 [Example 3S, 6-(2,6-difluoro-3-((5-fluoro-2-methoxypyridine)-3-sulfonamido)phenyl)-7-fluoro-N-methyl-1H-indazole-3-carboxamide]
< 500	Cc1c(CO)cc(F)cc1S(=O)(=O)Nc1ccc(F)c(-c2ccc3c(C(N)=O)n[nH]c3c2F)c1F [Example 4G]
< 500	COc1ncc(F)cc1S(=O)(=O)Nc1ncc(F)c(-c2ccc3c(-c4nc(CO)c[nH]4)n[nH]c3c2F)c1F [Example 3K, N-(3,5-difluoro-4-(7-fluoro-3-(4-(hydroxymethyl)-1H-imidazol-2-yl)-1H-indazol-6-yl)pyridin-2-yl)-5-fluoro-2-methoxypyridine-3-sulfonamide]
500 to 2500	COc1ncc(CO)cc1S(=O)(=O)Nc1ccc(F)c(-c2ccc3c(-c4ncc[nH]4)n[nH]c3c2F)c1F [Example 3DC, N-(2,4-difluoro-3-(7-fluoro-3-(1H-imidazol-2-yl)-1H-indazol-6-yl)phenyl)-5-(hydroxylmethyl)-2-methoxypyridine-3-sulfonamide]
500 to 2500	COc1ncc(Cl)cc1S(=O)(=O)Nc1ccc(F)c(-c2ccc3c(C(=O)Nc4cn[nH]n4)n[nH]c3c2F)c1F [Example 3DF, 6-(3-((5-chloro-2-methoxy-pyridine)-3-sulfonamido)-2,6-difluorophenyl)-7-fluoro-1H-(2H-1,2,3-triazol-4-yl)-1H-indazole-3-carboxamide]
500 to 2500	COc1cccc(-c2n[nH]c3c(F)c(-c4c(F)ccc(NS(=O)(=O)c5cc(F)cnc5C)c4F)ccc23)n1 [Example 14, N-(2,4-Difluoro-3-(7-fluoro-3-(6-methoxypyridin-2-yl)-1H-indazol-6-yl)phenyl)-5-fluoro-2-methylpyridine-3-sulfonamide]
500 to 2500	Cc1ncc(F)cc1S(=O)(=O)Nc1ccc(F)c(-c2ccc3c(C(=O)NCCCN(C)C)n[nH]c3c2F)c1F [Example 3CI, 6-(2,6-difluoro-3-((5-fluoro-2-methylpyridine)-3-sulfonamido)phenyl)-N-(3-(dimethylamino)propyl)-7-fluoro-1H-indazole-3-carboxamide]
< 500	COc1ncc(F)cc1S(=O)(=O)Nc1ccc(F)c(-c2ccc3c(-c4nc(C(O)CO)c[nH]4)n[nH]c3c2F)c1F (centres unmarked) [Example 21, N-(3-(3-(4-(1,2-Dihydroxyethyl)-1H-imidazol-2-yl)-7-fluoro-1H-indazol-6-yl)-2,4-difluorophenyl)-5-fluoro-2-methoxypyridine-3-sulfonamide]
500 to 2500	COc1ncc(C#N)cc1S(=O)(=O)Nc1ccc(F)c(-c2ccc3c(C(N)=O)n[nH]c3c2F)c1F [Example 3CY, 6-(3-((5-cyano-2-methoxy-pyridine)-3-sulfonamido)-2,6-difluorophenyl)-7-fluoro-1H-indazole-3-carboxamide]
> 10000	COc1ncc(CO)cc1S(=O)(=O)Nc1ccc(F)c(-c2ccc3c(C(=O)NCCCN(C)C)n[nH]c3c2F)c1F [Example 3DB, 6-(2,6-difluoro-3-((5-(hydroxymethyl)-2-meth-oxypyridine)-3-sulfonamido)-phenyl)-N-(3-(dimethyl-amino)propyl)-7-fluoro-1H-indazole-3-carboxamide]
> 10000	COc1ncc(C#N)cc1S(=O)(=O)Nc1cc(F)cc(-c2ccc3c(C(=O)NCCCN(C)C)n[nH]c3c2F)c1F [Example 3CE, 6-(3-((5-cyano-2-methoxy-pyridine)-3-sulfonamido)-2,5-difluorophenyl)-N-(3-(dimethylamino)propyl)-7-fluoro-1H-indazole-3-carboxamide]
< 500	COc1ncc(F)cc1S(=O)(=O)Nc1ccc(F)c(-c2ccc3c(-c4nc(C#N)c[nH]4)n[nH]c3c2F)c1F [Example 19, N-(3-(3-(4-Cyano-1H-imidazol-2-yl)-7-fluoro-1H-indazol-6-yl)-2,4-difluorophenyl)-5-fluoro-2-methoxypyridine-3-sulfonamide]
< 500	COc1ncc(Cl)cc1S(=O)(=O)Nc1ccc(F)c(-c2ccc3c(-c4cnn[nH]4)n[nH]c3c2F)c1F [Example 4AN]
< 500	Cc1ccc(S(=O)(=O)Nc2ccc(F)c(-c3ccc4c(C(=O)Nc5cnn(C)c5)n[nH]c4c3F)c2F)c(C)n1 [Example 3DH, 6-(3-((2,6-dimethylpyridine)-3-sulfonamido)-2,6-difluoro-phenyl)-7-fluoro-N-(1-methyl-1H-pyrazol-4-yl)-1H-indazole-3-carboxamide]
< 500	COc1ncc(Cl)cc1S(=O)(=O)Nc1cccc(-c2ncc3c(-c4ncc[nH]4)n[nH]c3c2F)c1F [Example 3AG, 5-chloro-N-(2-fluoro-3-(7-fluoro-3-(1H-imidazol-2-yl)-1H-pyrazolo[4,3-c]pyridin-6-yl)phenyl)-2-methoxy-pyridine-3-sulfonamide]
500 to 2500	COc1ncncc1S(=O)(=O)Nc1ccc(F)c(-c2ccc3c(-c4ncc[nH]4)n[nH]c3c2F)c1F [Example 3CX, N-(2,4-difluoro-3-(7-fluoro-3-(1H-imidazol-2-yl)-1H-indazol-6-yl)phenyl)-4-methoxypyrimidine-5-sulfonamide]
500 to 2500	COc1ncc(Cl)cc1S(=O)(=O)Nc1ccc(F)c(-c2ccc3c(C(=O)Nc4cnn(C(F)F)c4)n[nH]c3c2F)c1F [Example 3CR, 6-(3-((5-chloro-2-methoxy-pyridine)-3-sulfonamido)-2,6-difluorophenyl)-N-(1-(difluoromethyl)-1H pyrazol-4-yl)-7-fluoro-1H-indazole-3-carboxamide]
500 to 2500	COc1ccc(NS(=O)(=O)c2cc(F)cnc2OC)c(F)c1-c1ccc2c(C(N)=O)n[nH]c2c1F [Example 3AO, 7-fluoro-6-(2-fluoro-3-((5-fluoro-2-methoxypyridine)-3-sulfonamido)-6-methoxy-phenyl)-1H-indazole-3-carboxamide]
500 to 2500	COc1ncc(F)cc1S(=O)(=O)Nc1ccc(C#N)c(-c2ccc3c(C(N)=O)n[nH]c3c2F)c1F [Example 3BR, 6-(6-cyano-2-fluoro-3-((5-fluoro-2-methoxypyridine)-3-sulfonamido)phenyl)-7-fluoro-1H-indazole-3-carboxamide]
500 to 2500	COc1ncc(Cl)cc1S(=O)(=O)Nc1ccc(F)c(-c2ccc3c(C(=O)Nc4cnn(C)c4)n[nH]c3c2F)c1F [Example 3BQ, 6-(3-((5-chloro-2-methoxy-pyridine)-3-sulfonamido)-2,6-difluorophenyl)-7-fluoro-N-(1-methyl-1H-pyrazol-4-yl)-1H-indazole-3-carboxamide]
< 500	Cc1c(CO)cc(F)cc1S(=O)(=O)Nc1ccc(F)c(-c2ccc3c(C(=O)NCCCO)n[nH]c3c2F)c1F [Example 4H]

From patent US20220388964A1 (HiberCell, Inc., priority 2019, published 2022)
